Like-named read-outs stand apart in the source and are kept apart here. Positions of bridges follow the written chain, without caps; N, C: chain ends. Non-standard residues stand in square brackets, D forms with d. Residues, ends and D or L forms follow the SMILES beside them. 1Nal = N[C@@H](Cc1cccc2ccccc12)C(=O)O
Key:
Experiment in all cases: cell-based
hNav1.5 = hNav1.5 (Homo sapiens, UniProt Q14524)
hNav1.7 = hNav1.7 (Homo sapiens, UniProt Q15858); format: cell-based; conditions: IonWorks Quattro, use-dependent block, hNav1.7; read-out: IWQ Use Nav1.7
hNav1.3 = hNav1.3 (Homo sapiens, UniProt Q9NY46); conditions: IonWorks Quattro, use-dependent block, hNav1.3; read-out: IWQ Use Nav1.3
Sequence of hNav1.3 (Q9NY46 whole entry, looked up): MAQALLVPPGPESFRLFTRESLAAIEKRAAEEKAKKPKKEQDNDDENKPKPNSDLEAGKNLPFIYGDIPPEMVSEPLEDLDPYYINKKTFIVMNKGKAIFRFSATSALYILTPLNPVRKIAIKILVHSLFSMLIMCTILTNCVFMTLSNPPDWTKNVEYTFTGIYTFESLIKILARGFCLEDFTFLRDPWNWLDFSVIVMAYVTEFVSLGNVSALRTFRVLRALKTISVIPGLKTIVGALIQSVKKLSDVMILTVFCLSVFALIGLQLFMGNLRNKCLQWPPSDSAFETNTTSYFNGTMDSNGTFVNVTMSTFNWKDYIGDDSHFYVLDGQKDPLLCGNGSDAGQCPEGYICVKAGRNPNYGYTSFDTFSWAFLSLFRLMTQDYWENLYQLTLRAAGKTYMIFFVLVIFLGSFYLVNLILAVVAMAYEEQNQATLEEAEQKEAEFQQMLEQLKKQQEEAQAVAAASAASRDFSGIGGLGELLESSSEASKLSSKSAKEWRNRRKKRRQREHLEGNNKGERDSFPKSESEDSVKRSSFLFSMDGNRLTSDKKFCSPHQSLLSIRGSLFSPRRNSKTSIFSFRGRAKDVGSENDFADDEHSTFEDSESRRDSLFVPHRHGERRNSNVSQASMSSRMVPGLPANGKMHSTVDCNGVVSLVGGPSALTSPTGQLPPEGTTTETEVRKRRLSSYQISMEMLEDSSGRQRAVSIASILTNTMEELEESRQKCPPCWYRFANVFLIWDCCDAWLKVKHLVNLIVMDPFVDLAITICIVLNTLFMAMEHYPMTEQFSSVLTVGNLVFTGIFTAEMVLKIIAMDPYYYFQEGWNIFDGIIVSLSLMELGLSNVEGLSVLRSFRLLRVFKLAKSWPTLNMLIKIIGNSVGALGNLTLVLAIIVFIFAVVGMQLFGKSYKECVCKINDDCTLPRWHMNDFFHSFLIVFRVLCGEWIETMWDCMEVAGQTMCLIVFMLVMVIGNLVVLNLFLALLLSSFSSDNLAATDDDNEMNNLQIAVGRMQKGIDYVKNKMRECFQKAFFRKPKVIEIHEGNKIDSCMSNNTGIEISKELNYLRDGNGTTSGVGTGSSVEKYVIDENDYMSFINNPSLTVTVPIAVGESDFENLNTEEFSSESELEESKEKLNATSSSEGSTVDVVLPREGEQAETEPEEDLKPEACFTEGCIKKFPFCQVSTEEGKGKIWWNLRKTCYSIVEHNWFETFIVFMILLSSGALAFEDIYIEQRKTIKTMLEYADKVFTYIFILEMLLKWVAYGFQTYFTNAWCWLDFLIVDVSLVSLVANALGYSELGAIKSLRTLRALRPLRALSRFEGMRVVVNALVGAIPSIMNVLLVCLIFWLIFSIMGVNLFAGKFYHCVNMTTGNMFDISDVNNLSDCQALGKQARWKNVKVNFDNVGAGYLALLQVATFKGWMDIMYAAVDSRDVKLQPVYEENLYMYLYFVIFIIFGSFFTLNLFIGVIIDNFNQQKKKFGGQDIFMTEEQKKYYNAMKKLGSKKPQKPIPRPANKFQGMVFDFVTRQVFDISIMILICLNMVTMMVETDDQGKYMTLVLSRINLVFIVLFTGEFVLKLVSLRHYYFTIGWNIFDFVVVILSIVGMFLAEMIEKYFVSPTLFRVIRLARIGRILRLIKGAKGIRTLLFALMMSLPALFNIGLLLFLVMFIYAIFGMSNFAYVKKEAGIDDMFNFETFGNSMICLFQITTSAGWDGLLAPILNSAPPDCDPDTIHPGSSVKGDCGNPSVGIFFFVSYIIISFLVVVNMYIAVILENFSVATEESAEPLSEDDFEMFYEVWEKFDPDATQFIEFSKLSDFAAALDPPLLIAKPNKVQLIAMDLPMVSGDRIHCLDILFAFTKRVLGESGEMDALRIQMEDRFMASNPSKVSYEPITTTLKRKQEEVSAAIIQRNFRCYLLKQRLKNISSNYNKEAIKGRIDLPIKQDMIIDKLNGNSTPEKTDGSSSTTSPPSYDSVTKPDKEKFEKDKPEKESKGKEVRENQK

[1] = IonWorks Quattro, use-dependent block, hNav1.5, read-out: IWQ Use Nav1.5

Sequence of hNav1.5 (Q14524 whole entry, looked up): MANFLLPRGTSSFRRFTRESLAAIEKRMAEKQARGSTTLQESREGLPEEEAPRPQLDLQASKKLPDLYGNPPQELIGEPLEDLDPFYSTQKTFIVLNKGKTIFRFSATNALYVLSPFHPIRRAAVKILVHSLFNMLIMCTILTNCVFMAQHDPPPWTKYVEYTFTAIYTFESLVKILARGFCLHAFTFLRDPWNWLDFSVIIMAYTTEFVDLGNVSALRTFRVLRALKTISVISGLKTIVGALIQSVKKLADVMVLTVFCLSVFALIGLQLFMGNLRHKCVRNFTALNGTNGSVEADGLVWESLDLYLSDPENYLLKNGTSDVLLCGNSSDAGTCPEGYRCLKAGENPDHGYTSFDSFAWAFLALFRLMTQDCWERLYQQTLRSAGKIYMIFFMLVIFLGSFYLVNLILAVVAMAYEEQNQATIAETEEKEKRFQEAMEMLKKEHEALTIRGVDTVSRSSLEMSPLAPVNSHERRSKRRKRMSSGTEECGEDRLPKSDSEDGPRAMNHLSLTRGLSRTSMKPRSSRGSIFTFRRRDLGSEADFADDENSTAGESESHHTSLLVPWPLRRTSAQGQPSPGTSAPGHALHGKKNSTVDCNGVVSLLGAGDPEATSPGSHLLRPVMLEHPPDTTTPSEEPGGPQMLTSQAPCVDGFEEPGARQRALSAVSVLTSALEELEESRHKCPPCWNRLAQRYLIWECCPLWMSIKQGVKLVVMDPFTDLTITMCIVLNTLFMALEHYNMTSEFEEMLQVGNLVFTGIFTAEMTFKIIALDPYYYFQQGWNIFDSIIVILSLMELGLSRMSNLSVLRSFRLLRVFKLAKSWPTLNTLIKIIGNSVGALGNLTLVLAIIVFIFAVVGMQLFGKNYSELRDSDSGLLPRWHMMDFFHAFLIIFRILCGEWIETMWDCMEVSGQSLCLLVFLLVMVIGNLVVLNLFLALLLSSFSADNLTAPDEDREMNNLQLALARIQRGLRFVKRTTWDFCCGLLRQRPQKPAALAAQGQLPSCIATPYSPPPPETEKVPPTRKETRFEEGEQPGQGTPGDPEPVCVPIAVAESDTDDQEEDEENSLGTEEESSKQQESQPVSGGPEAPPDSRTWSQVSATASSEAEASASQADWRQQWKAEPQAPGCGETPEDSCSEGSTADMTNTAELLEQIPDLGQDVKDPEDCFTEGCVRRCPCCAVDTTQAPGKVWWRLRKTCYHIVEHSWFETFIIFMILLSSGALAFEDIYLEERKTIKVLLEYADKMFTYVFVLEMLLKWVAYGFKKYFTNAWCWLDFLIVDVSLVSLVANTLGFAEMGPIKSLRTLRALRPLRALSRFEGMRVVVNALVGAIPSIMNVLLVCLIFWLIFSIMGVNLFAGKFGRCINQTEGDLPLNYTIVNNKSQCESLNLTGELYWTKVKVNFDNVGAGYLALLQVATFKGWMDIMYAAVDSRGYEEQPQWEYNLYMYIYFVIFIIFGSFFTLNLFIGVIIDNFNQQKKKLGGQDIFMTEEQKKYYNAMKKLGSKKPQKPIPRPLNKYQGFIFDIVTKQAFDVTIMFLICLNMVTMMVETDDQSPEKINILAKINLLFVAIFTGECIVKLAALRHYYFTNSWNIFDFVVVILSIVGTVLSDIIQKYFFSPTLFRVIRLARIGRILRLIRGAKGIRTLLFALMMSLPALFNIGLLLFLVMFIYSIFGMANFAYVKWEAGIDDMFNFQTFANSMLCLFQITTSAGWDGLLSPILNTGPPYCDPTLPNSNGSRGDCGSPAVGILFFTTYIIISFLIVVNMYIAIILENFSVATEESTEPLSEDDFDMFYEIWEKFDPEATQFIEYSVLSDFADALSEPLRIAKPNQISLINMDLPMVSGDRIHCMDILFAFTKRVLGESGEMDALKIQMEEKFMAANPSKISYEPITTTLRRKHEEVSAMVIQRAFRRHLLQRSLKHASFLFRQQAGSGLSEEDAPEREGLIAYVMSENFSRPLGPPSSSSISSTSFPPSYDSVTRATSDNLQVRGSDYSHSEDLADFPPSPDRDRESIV

Row | SMILES | IC50 (hNav1.5; [1]) [µM] | IC50 (hNav1.7) [nM] | IC50 (hNav1.3) [nM] | IC50 (hNav1.5; IWQ Use Nav1.5 (μM)) [µM]
1 | CC[C@H](C)[C@@H]1NC(=O)[C@@H]2CSSC[C@@H]3NC(=O)[C@H](C(C)C)NC(=O)[C@H](CC(C)C)NC(=O)[C@H](CC(N)=O)NC(=O)[C@@H]4CCCN4C(=O)[C@H](CCCNC(=N)N)NC(=O)[C@H](CSSC[C@H](NC(=O)[C@@H](N)CC(=O)O)C(=O)N[C@@H](CC(C)C)C(=O)NCC(=O)N[C@@H](Cc4ccccc4)C(=O)N[C@@H](CCSC)C(=O)N[C@@H](CCCNC(=N)N)C(=O)N[C@@H](CCCCN)C(=O)N2)NC(=O)[C@H](CSSC[C@@H](C(=O)N[C@@H](CCCCN)C(=O)N[C@@H](Cc2cccc4ccccc24)C(=O)N[C@H](C(=O)N[C@@H](Cc2ccccc2)C(N)=O)C(C)C)NC(=O)[C@H](Cc2c[nH]c4ccccc24)NC(=O)[C@H](CCCNC(=N)N)NC(=O)[C@H](Cc2c[nH]cn2)NC(=O)[C@H]([C@@H](C)O)NC(=O)[C@H](CCCNC(=N)N)NC(=O)[C@H](CO)NC3=O)NC(=O)[C@H](CCCCN)NC(=O)[C@H](CC(=O)O)NC(=O)[C@H](CC(N)=O)NC(=O)[C@H](CC(=O)O)NC(=O)[C@@H]2CCCN2C1=O [compound 251] (H-DCLGFMRKCIPDNDKCCRPNLVCSRTHRWCK[1Nal]VF-NH2; disulfide 2-17, 9-23, 16-30) | 2.56 | 5 | 2 | 
2 | CC[C@H](C)[C@@H]1NC(=O)[C@@H]2CSSC[C@@H]3NC(=O)[C@H](C(C)C)NC(=O)[C@H](CC(C)C)NC(=O)[C@H](CC(N)=O)NC(=O)[C@@H]4CCCN4C(=O)[C@H](CCCNC(=N)N)NC(=O)[C@H](CSSC[C@H](NC(=O)[C@@H](N)CC(=O)O)C(=O)N[C@@H](CC(C)C)C(=O)NCC(=O)N[C@@H](C)C(=O)N[C@@H](CCSC)C(=O)N[C@@H](CCCNC(=N)N)C(=O)N[C@@H](CCCCN)C(=O)N2)NC(=O)[C@H](CSSC[C@@H](C(=O)N[C@@H](CCCCN)C(=O)N[C@@H](Cc2ccc(O)cc2)C(=O)N[C@@H](Cc2c[nH]c4ccccc24)C(=O)N[C@@H](Cc2ccccc2)C(N)=O)NC(=O)[C@H](Cc2c[nH]c4ccccc24)NC(=O)[C@H](CCCCN)NC(=O)[C@H](Cc2c[nH]cn2)NC(=O)[C@H]([C@@H](C)O)NC(=O)[C@H](CCCNC(=N)N)NC(=O)[C@H](CO)NC3=O)NC(=O)[C@H](CCCCN)NC(=O)[C@H](CC(=O)O)NC(=O)[C@H](CC(N)=O)NC(=O)[C@H](CC(=O)O)NC(=O)[C@@H]2CCCN2C1=O [compound 252] (H-DCLGAMRKCIPDNDKCCRPNLVCSRTHKWCKYWF-NH2; disulfide 2-17, 9-23, 16-30) | 5 | 230 | 400 | 
3 | CC[C@H](C)[C@@H]1NC(=O)[C@@H]2CSSC[C@@H]3NC(=O)[C@H](C(C)C)NC(=O)[C@H](CC(C)C)NC(=O)[C@H](CC(N)=O)NC(=O)[C@@H]4CCCN4C(=O)[C@H](CCCNC(=N)N)NC(=O)[C@H](CSSC[C@H](NC(=O)[C@@H](N)CC(=O)O)C(=O)N[C@@H](CC(C)C)C(=O)NCC(=O)N[C@@H](C)C(=O)N[C@@H](CCSC)C(=O)N[C@@H](CCCNC(=N)N)C(=O)N[C@@H](CCCCN)C(=O)N2)NC(=O)[C@H](CSSC[C@@H](C(=O)N[C@@H](CCCCN)C(=O)N[C@@H](Cc2c[nH]c4ccccc24)C(=O)N[C@H](C(=O)N[C@@H](Cc2ccccc2)C(N)=O)C(C)C)NC(=O)[C@H](Cc2c[nH]c4ccccc24)NC(=O)[C@H](CCCCN)NC(=O)[C@H](Cc2c[nH]cn2)NC(=O)[C@H]([C@@H](C)O)NC(=O)[C@H](CCCNC(=N)N)NC(=O)[C@H](CO)NC3=O)NC(=O)[C@H](CCCCN)NC(=O)[C@H](CC(=O)O)NC(=O)[C@H](CC(N)=O)NC(=O)[C@H](CC(=O)O)NC(=O)[C@@H]2CCCN2C1=O [compound 253] (H-DCLGAMRKCIPDNDKCCRPNLVCSRTHKWCKWVF-NH2; disulfide 2-17, 9-23, 16-30) | 5 | 270 | 530 | 
4 | CC[C@H](C)[C@@H]1NC(=O)[C@@H]2CSSC[C@@H]3NC(=O)[C@H](C(C)C)NC(=O)[C@H](CC(C)C)NC(=O)[C@H](CC(N)=O)NC(=O)[C@@H]4CCCN4C(=O)[C@H](CCCNC(=N)N)NC(=O)[C@H](CSSC[C@H](NC(=O)[C@@H](N)CC(=O)O)C(=O)N[C@@H](CC(C)C)C(=O)NCC(=O)N[C@@H](C)C(=O)N[C@@H](CCSC)C(=O)N[C@@H](CCCNC(=N)N)C(=O)N[C@@H](CCCCN)C(=O)N2)NC(=O)[C@H](CSSC[C@@H](C(=O)N[C@@H](CCCCN)C(=O)N[C@@H](Cc2cccc4ccccc24)C(=O)N[C@H](C(=O)N[C@@H](Cc2ccccc2)C(N)=O)C(C)C)NC(=O)[C@H](Cc2c[nH]c4ccccc24)NC(=O)[C@H](CCCCN)NC(=O)[C@H](Cc2c[nH]cn2)NC(=O)[C@H]([C@@H](C)O)NC(=O)[C@H](CCCNC(=N)N)NC(=O)[C@H](CO)NC3=O)NC(=O)[C@H](CCCCN)NC(=O)[C@H](CC(=O)O)NC(=O)[C@H](CC(N)=O)NC(=O)[C@H](CC(=O)O)NC(=O)[C@@H]2CCCN2C1=O [compound 254] (H-DCLGAMRKCIPDNDKCCRPNLVCSRTHKWCK[1Nal]VF-NH2; disulfide 2-17, 9-23, 16-30) | 5 | 60 | 200 | 
5 | CC[C@H](C)[C@@H]1NC(=O)[C@@H]2CSSC[C@@H]3NC(=O)[C@H](C(C)C)NC(=O)[C@H](CC(C)C)NC(=O)[C@H](CC(N)=O)NC(=O)[C@@H]4CCCN4C(=O)[C@H](CCCNC(=N)N)NC(=O)[C@H](CSSC[C@H](NC(=O)[C@@H](N)CC(=O)O)C(=O)N[C@@H](CC(C)C)C(=O)NCC(=O)N[C@@H](C)C(=O)N[C@@H](CCSC)C(=O)N[C@@H](CCCNC(=N)N)C(=O)N[C@@H](CCCCN)C(=O)N2)NC(=O)[C@H](CSSC[C@@H](C(=O)N[C@@H](CCCCN)C(=O)N[C@@H](Cc2ccc(O)cc2)C(=O)N[C@H](C(=O)N[C@@H](Cc2ccccc2)C(N)=O)C(C)C)NC(=O)[C@H](Cc2c[nH]c4ccccc24)NC(=O)[C@H](CCCCN)NC(=O)[C@H](Cc2cnc[nH]2)NC(=O)[C@H](CC(C)C)NC(=O)[C@H](CCCNC(=N)N)NC(=O)[C@H](CO)NC3=O)NC(=O)[C@H](CCCCN)NC(=O)[C@H](CC(=O)O)NC(=O)[C@H](CC(N)=O)NC(=O)[C@H](CC(=O)O)NC(=O)[C@@H]2CCCN2C1=O [compound 255] (H-DCLGAMRKCIPDNDKCCRPNLVCSRLHKWCKYVF-NH2; disulfide 2-17, 9-23, 16-30) |  | 280 | 680 | 5
6 | CC[C@H](C)[C@@H]1NC(=O)[C@@H]2CSSC[C@@H]3NC(=O)[C@H](C(C)C)NC(=O)[C@H](CC(C)C)NC(=O)[C@H](CC(N)=O)NC(=O)[C@@H]4CCCN4C(=O)[C@H](CCCNC(=N)N)NC(=O)[C@H](CSSC[C@H](NC(=O)[C@@H](N)CC(=O)O)C(=O)N[C@@H](CC(C)C)C(=O)NCC(=O)N[C@@H](C)C(=O)N[C@@H](Cc4cccc5ccccc45)C(=O)N[C@@H](CCCNC(=N)N)C(=O)N[C@@H](CCCCN)C(=O)N2)NC(=O)[C@H](CSSC[C@@H](C(=O)N[C@@H](CCCCN)C(=O)N[C@@H](Cc2ccc(O)cc2)C(=O)N[C@H](C(=O)N[C@@H](Cc2ccccc2)C(N)=O)C(C)C)NC(=O)[C@H](Cc2c[nH]c4ccccc24)NC(=O)[C@H](CCCCN)NC(=O)[C@H](Cc2cnc[nH]2)NC(=O)[C@H]([C@@H](C)O)NC(=O)[C@H](CCCNC(=N)N)NC(=O)[C@H](CO)NC3=O)NC(=O)[C@H](CCCCN)NC(=O)[C@H](CC(=O)O)NC(=O)[C@H](CC(N)=O)NC(=O)[C@H](CC(=O)O)NC(=O)[C@@H]2CCCN2C1=O [compound 256] | 5 | 100 | 60 | 
7 | CC[C@H](C)[C@@H]1NC(=O)[C@@H]2CSSC[C@@H]3NC(=O)[C@H](C(C)C)NC(=O)[C@H](CC(C)C)NC(=O)[C@H](CC(N)=O)NC(=O)[C@@H]4CCCN4C(=O)[C@H](CCCNC(=N)N)NC(=O)[C@H](CSSC[C@H](NC(=O)[C@@H](N)CC(=O)O)C(=O)N[C@@H](CC(C)C)C(=O)NCC(=O)N[C@@H](C)C(=O)N[C@@H](CCSC)C(=O)N[C@@H](CCCNC(=N)N)C(=O)N[C@@H](CCCCN)C(=O)N2)NC(=O)[C@H](CSSC[C@@H](C(=O)N[C@@H](CCCCN)C(=O)N[C@@H](Cc2ccc(O)cc2)C(=O)N[C@@H](Cc2cccc4ccccc24)C(=O)N[C@@H](Cc2ccccc2)C(N)=O)NC(=O)[C@H](Cc2c[nH]c4ccccc24)NC(=O)[C@H](CCCCN)NC(=O)[C@H](Cc2c[nH]cn2)NC(=O)[C@H]([C@@H](C)O)NC(=O)[C@H](CCCNC(=N)N)NC(=O)[C@H](CO)NC3=O)NC(=O)[C@H](CCCCN)NC(=O)[C@H](CC(=O)O)NC(=O)[C@H](CC(N)=O)NC(=O)[C@H](CC(=O)O)NC(=O)[C@@H]2CCCN2C1=O [compound 258] (H-DCLGAMRKCIPDNDKCCRPNLVCSRTHKWCKY[1Nal]F-NH2; disulfide 2-17, 9-23, 16-30) |  | 380 | 800 | 5
8 | CC[C@H](C)[C@@H]1NC(=O)[C@@H]2CSSC[C@@H]3NC(=O)[C@H](C(C)C)NC(=O)[C@H](CC(C)C)NC(=O)[C@H](CC(N)=O)NC(=O)[C@@H]4CCCN4C(=O)[C@H](CCCNC(=N)N)NC(=O)[C@H](CSSC[C@H](NC(=O)[C@@H](N)CC(=O)O)C(=O)N[C@@H](CC(C)C)C(=O)NCC(=O)N[C@@H](C)C(=O)N[C@@H](CCSC)C(=O)N[C@@H](CCCNC(=N)N)C(=O)N[C@@H](CCCCN)C(=O)N2)NC(=O)[C@H](CSSC[C@@H](C(=O)N[C@@H](CCCCN)C(=O)N[C@@H](Cc2ccc(O)cc2)C(=O)N[C@H](C(=O)N[C@@H](Cc2ccccc2)C(N)=O)C(C)C)NC(=O)[C@H](Cc2c[nH]c4ccccc24)NC(=O)[C@H](CCCNC(=N)N)NC(=O)[C@H](Cc2c[nH]cn2)NC(=O)[C@H]([C@@H](C)O)NC(=O)[C@H](CCCNC(=N)N)NC(=O)[C@H](CO)NC3=O)NC(=O)[C@H](CCCCN)NC(=O)[C@H](CC(=O)O)NC(=O)[C@H](CC(N)=O)NC(=O)[C@H](CC(=O)O)NC(=O)[C@@H]2CCCN2C1=O [compound 260] (H-DCLGAMRKCIPDNDKCCRPNLVCSRTHRWCKYVF-NH2; disulfide 2-17, 9-23, 16-30) | 5 | 330 | 240 | 

— patent US9340590B2 (priority 2011, dated 2016)
